Assays:
[1] = test system: Bacillus megaterium SBUG 1152; assay: agar diffusion test (Test System 1, antimicrobial effect); type: cell-based
Method in brief: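 Paper discs loaded with 10 μg, 50 μg or 100 μg of test substance (methanol or water solution) placed on nutrient agar seeded with 10^6 cells of a 17-h B. megaterium culture. After 20 h at 37° C., zone of inhibition measured as diameter in mm.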

B. subtilis AWD 166 = assay: agar diffusion test (antimicrobial effect); type: cell-based, Bacillus subtilis
Method in brief: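 Inhibition zone diameters (mm) read after 20 h incubation at 37 °C. Discs carried 10 μg, 50 μg or 100 μg of test substance, dissolved in methanol or distilled water, on agar inoculated with B. subtilis AWD 166 for dense but separate colonies.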

[2] = test system: Escherichia coli SBUG 1135; assay: agar diffusion test (Test System 1, antimicrobial effect); type: cell-based; set-up: key: r = resistant (no detectable zone of inhibition)
Method in brief: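 Disc diffusion: compound at 10 μg, 50 μg, 100 μg on sensi-discs, three per plate of nutrient agar seeded with ~10^6 E. coli SBUG 1135 (overnight culture, 17 h, 37° C, diluted 1:100). After 20 h incubation at 37° C, zone diameter recorded in mm.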

[3] = test system: Enterococcus faecalis 769; assay: agar diffusion test (Test System II, multi-resistant germs); type: cell-based; set-up: key: r = resistant (no detectable zone of inhibition)
Method in brief: (§1)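 Discs loaded with 10, 50 or 100 μg compound (dissolved in methanol or distilled water) placed on Müller-Hinton agar II inoculated with McFarland 0.5 suspension. Incubated 18-20 h at 37 °C. Inhibition zone diameter read as activity.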

[4] = test system: Staphylococcus aureus 315; assay: as above; type: cell-based; set-up: key: r = resistant (no detectable zone of inhibition)
Method in brief: as §1

S. aureus 33490 = assay: as above; type: cell-based, Staphylococcus aureus; set-up: key: r = resistant (no detectable zone of inhibition)
Method in brief: as §1

S. aureus 34289 = assay: as above; type: cell-based, Staphylococcus aureus; set-up: key: r = resistant (no detectable zone of inhibition)
Method in brief: as §1

S. aureus 36881 = assay: as above; type: cell-based, Staphylococcus aureus; set-up: key: r = resistant (no detectable zone of inhibition)
Method in brief: as §1

S. aureus 39105 = assay: as above; type: cell-based, Staphylococcus aureus; set-up: key: r = resistant (no detectable zone of inhibition)
Method in brief: as §1

S. aureus 520 = assay: as above; type: cell-based, Staphylococcus aureus; set-up: key: r = resistant (no detectable zone of inhibition)
Method in brief: as §1

S. aureus 526 = assay: as above; type: cell-based, Staphylococcus aureus; set-up: key: r = resistant (no detectable zone of inhibition)
Method in brief: as §1

[5] = test system: S. aureus North Germany strain; assay: as above; type: cell-based, Staphylococcus aureus; set-up: key: r = resistant (no detectable zone of inhibition)
Method in brief: as §1

S. epidermidis 125 = assay: as above; type: cell-based, Staphylococcus epidermidis
Method in brief: as §1

[6] = test system: Staphylococcus aureus ATCC 6538; assay: mouse infected with Staphylococcus aureus infection model (survival); type: in vivo, BALB/c mice; settings: 2 × 0.5 mg (25 mg/kg) i.p.
Method in brief: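 Survival model: S. aureus grown to extinction 0.6 at 550 nm and injected i.p. (10 μl/g body weight) into cyclophosphamide-pretreated BALB/c mice (250 then 100 mg/kg i.p.), ≥3 animals per arm. Test antibiotic dosed i.p. at 30 min and again later at the same concentration, vehicle PBS/3% DMSO.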

7-{2-2-(2-hydroxyethylcarbamoyl)-3,6-dioxyocyclohexa-1,4-dienylamino]-2-(4-hydroxyphenyl)-acetylamino}-desacetoxycephalosporanic acid [1a]
Diameter of zone of inhibition ([1]; Quantity n 0.019): 22 mm | Diameter of zone of inhibition ([1]; Quantity n 0.1): 30 mm | Diameter of zone of inhibition ([1]; Quantity n 0.19): 32 mm | Diameter of zone of inhibition (B. subtilis AWD 166; Quantity n 0.019): 24 mm | Diameter of zone of inhibition (B. subtilis AWD 166; Quantity n 0.1): 30 mm | Diameter of zone of inhibition (B. subtilis AWD 166; Quantity n 0.19): 32 mm | Diameter of zone of inhibition ([2]; Quantity n 0.019): r^2 | Diameter of zone of inhibition ([2]; Quantity n 0.1): 14 mm | Diameter of zone of inhibition ([2]; Quantity n 0.19): 16 mm | Diameter of zone of inhibition ([3]; Quantity n 0.019): r | Diameter of zone of inhibition ([3]; Quantity n 0.1): r | Diameter of zone of inhibition ([3]; Quantity n 0.19): r | Diameter of zone of inhibition ([4]; Quantity n 0.019): r | Diameter of zone of inhibition ([4]; Quantity n 0.1): 10 mm | Diameter of zone of inhibition ([4]; Quantity n 0.19): 16 mm | Diameter of zone of inhibition (S. aureus 33490; Quantity n [μmol] 0.019): r | Diameter of zone of inhibition (S. aureus 33490; Quantity n [μmol] 0.1): 14 mm | Diameter of zone of inhibition (S. aureus 33490; Quantity n [μmol] 0.19): 18 mm | Diameter of zone of inhibition (S. aureus 34289; Quantity n [mol] 0.019): r | Diameter of zone of inhibition (S. aureus 34289; Quantity n [mol] 0.1): r | Diameter of zone of inhibition (S. aureus 34289; Quantity n [mol] 0.19): r | Diameter of zone of inhibition (S. aureus 36881; Quantity n 0.019): r | Diameter of zone of inhibition (S. aureus 36881; Quantity n 0.1): 10 mm | Diameter of zone of inhibition (S. aureus 36881; Quantity n 0.19): 16 mm | Diameter of zone of inhibition (S. aureus 39105; Quantity n 0.019): r | Diameter of zone of inhibition (S. aureus 39105; Quantity n 0.1): r | Diameter of zone of inhibition (S. aureus 39105; Quantity n 0.19): 14 mm | Diameter of zone of inhibition (S. aureus 520; Quantity n [mol] 0.019): r | Diameter of zone of inhibition (S. aureus 520; Quantity n [mol] 0.1): r | Diameter of zone of inhibition (S. aureus 520; Quantity n [mol] 0.19): 12 mm | Diameter of zone of inhibition (S. aureus 526; Quantity n 0.019): r | Diameter of zone of inhibition (S. aureus 526; Quantity n 0.1): r | Diameter of zone of inhibition (S. aureus 526; Quantity n 0.19): 10 mm | Diameter of zone of inhibition ([5]; Quantity n 0.019): r | Diameter of zone of inhibition ([5]; Quantity n 0.1): 16 mm | Diameter of zone of inhibition ([5]; Quantity n 0.19): 18 mm | Diameter of zone of inhibition (S. epidermidis 125; Quantity n 0.019): 14 mm | Diameter of zone of inhibition (S. epidermidis 125; Quantity n 0.1): 24 mm | Diameter of zone of inhibition (S. epidermidis 125; Quantity n 0.19): 28 mm | Survival/tested mice n/n [6]: 9/9

NC(=O)C1=C(NC(C(=O)NC2C(=O)N3C(C(=O)O)=C(Cl)CSC23)c2ccccc2)C(=O)C=CC1=O (centres unmarked) [1j, 3-chlorine-7-[2-(2-carbamoyl-3,6-dioxocyclohexa-1,4-dienylamino)-2-phenyl-acetylamino]-8-oxo-1-thia-5-azabicyclo[4.2.0]oct-3-en-4-carboxylic acid]
Diameter of zone of inhibition ([1]; Quantity n 0.02): 28 mm | Diameter of zone of inhibition ([1]; Quantity n 0.1): 36 mm | Diameter of zone of inhibition ([1]; Quantity n 0.2): 40 mm | Diameter of zone of inhibition (B. subtilis AWD 166; Quantity n 0.02): 30 mm | Diameter of zone of inhibition (B. subtilis AWD 166; Quantity n 0.1): 38 mm | Diameter of zone of inhibition (B. subtilis AWD 166; Quantity n 0.2): 40 mm | Diameter of zone of inhibition ([2]; Quantity n 0.02): 18 mm | Diameter of zone of inhibition ([2]; Quantity n 0.1): 26 mm | Diameter of zone of inhibition ([2]; Quantity n 0.2): 28 mm | Diameter of zone of inhibition ([3]; Quantity n 0.02): r | Diameter of zone of inhibition ([3]; Quantity n 0.1): 8 mm | Diameter of zone of inhibition ([3]; Quantity n 0.2): 12 mm | Diameter of zone of inhibition ([4]; Quantity n 0.02): r | Diameter of zone of inhibition ([4]; Quantity n 0.1): 8 mm | Diameter of zone of inhibition ([4]; Quantity n 0.2): 12 mm | Diameter of zone of inhibition (S. aureus 33490; Quantity n [μmol] 0.02): 16 mm | Diameter of zone of inhibition (S. aureus 33490; Quantity n [μmol] 0.1): 24 mm | Diameter of zone of inhibition (S. aureus 33490; Quantity n [μmol] 0.2): 26 mm | Diameter of zone of inhibition (S. aureus 34289; Quantity n [mol] 0.02): r | Diameter of zone of inhibition (S. aureus 34289; Quantity n [mol] 0.1): r | Diameter of zone of inhibition (S. aureus 34289; Quantity n [mol] 0.2): r | Diameter of zone of inhibition (S. aureus 36881; Quantity n 0.02): r | Diameter of zone of inhibition (S. aureus 36881; Quantity n 0.1): 12 mm | Diameter of zone of inhibition (S. aureus 36881; Quantity n 0.2): 16 mm | Diameter of zone of inhibition (S. aureus 39105; Quantity n 0.02): r | Diameter of zone of inhibition (S. aureus 39105; Quantity n 0.1): 16 mm | Diameter of zone of inhibition (S. aureus 39105; Quantity n 0.2): 18 mm | Diameter of zone of inhibition (S. aureus 520; Quantity n [mol] 0.02): r | Diameter of zone of inhibition (S. aureus 520; Quantity n [mol] 0.1): 8 mm | Diameter of zone of inhibition (S. aureus 520; Quantity n [mol] 0.2): 12 mm | Diameter of zone of inhibition (S. aureus 526; Quantity n 0.02): r | Diameter of zone of inhibition (S. aureus 526; Quantity n 0.1): r | Diameter of zone of inhibition (S. aureus 526; Quantity n 0.2): r | Diameter of zone of inhibition ([5]; Quantity n 0.02): r | Diameter of zone of inhibition ([5]; Quantity n 0.1): 12 mm | Diameter of zone of inhibition ([5]; Quantity n 0.2): 16 mm | Diameter of zone of inhibition (S. epidermidis 125; Quantity n 0.02): 22 mm | Diameter of zone of inhibition (S. epidermidis 125; Quantity n 0.1): 30 mm | Diameter of zone of inhibition (S. epidermidis 125; Quantity n 0.2): 32 mm | Survival/tested mice n/n [6]: 3/3

Source: US20110040086A1, “Novel Beta-Lactam Antibiotics, Methods for Their Production, and Their Use” (DRITTE PATENTPORTFOLIO BETEILIGUNGSGESELLSCHAFT MB, priority 2007, published 2011)
